pIC50: −log10 of the molar value.
Biological target: T1, geranylgeranyl protein transferase (GGPT) I (Rattus norvegicus, UniProt P53610+Q04631)
T1 construct: geranylgeranyl protein transferase (GGPT) I were partially purified from rat brain; from tissue; host or cells: rat brain
Assay: In vitro enzyme assay: inhibition of geranylgeranyl protein transferase I (Ras-CVLL as acceptor)
Assay type: biochemical
Conditions: Table 2; Ras-CVLL as isoprenoid acceptor
Description: • 1. In vitro enzyme assays: Inhibition of farnesyl protein transferase and geranylgeranyl protein transferase. Both farnesyl protein transferase (FPT) and geranylgeranyl protein transferase (GGPT) I were partially purified from rat brain by ammonium sulfate fractionation followed by Q-Sepharose (Pharmacia, Inc.) anion exchange chromatography essentially as described by Yokoyama et al (Yokoyama, K., et al., (1991), A protein geranylgeranyltransferase from bovine brain: Implications for protein prenylation specificity, Proc. Natl. Acad. Sci USA 88: 5302-5306, the disclosure of which is incorporated herein by reference thereto). Human farnesyl protein transferase was also expressed in E. coli, using cDNA clones encoding both the a and b subunits. The methods used were similar to those published (Omer, C. et al., (1993), Characterization of recombinant human farnesyl protein transferase: Cloning, expression, farnesyl diphosphate binding, and functional homology with yeast prenyl-protein transferases, Biochemistry 32:5167-5176). Human farnesyl protein transferase was partially-purified from the soluble protein fraction of E. coli as described above. The tricyclic farnesyl protein transferase inhibitors disclosed herein inhibited both human and rat enzyme with similar potencies. Two forms of val^12-Ha-Ras protein were prepared as substrates for these enzymes, differing in their carboxy terminal sequence. One form terminated in cysteine-valine-leucine-serine (Ras-CVLS) the other in cystein-valine-leucine-leucine (Ras-CVLL). Ras-CVLS is a substrate for the farnesyl protein transferase while Ras-CVLL is a substrate for geranylgeranyl protein transferase I. The cDNAs encoding these proteins were constructed so that the proteins contain an amino-terminal extension of 6 histidine residues. Both proteins were expressed in Escherichia coli and purified using metal chelate affinity chromatography. The radiolabelled isoprenyl pyrophosphate substrates, [^3H]farnesyl pyrophosphate and [^3H]geranylgeranyl pyrophosphate, were purchased from DuPont/New England Nuclear. Several methods for measuring farnesyl protein transferase activity have been described (Reiss et al 1990, Cell 62: 81; Schaber et al 1990, J. Biol. Chem. 265: 14701; Manne et al 1990, PNAS 87: 7541; and Barbacid & Manne 1993, U.S. Patent No. 5,185,248). The activity was assayed by measuring the transfer of [^3H]farnesyl from [^3H]farnesyl pyrophosphate to Ras-CVLS using conditions similar to those described by Reiss et al. 1990 (Cell 62: 81) The reaction mixture contained 40 mM Hepes, pH 7.5; 20 mM magnesium chloride; 5 mM dithiothreitol; 0.25 µM [^3H]farnesyl pyrophosphate; […] Q-Sepharose-purified farnesyl protein transferase; the indicated concentration of tricyclic compound or dimethylsulfoxide (DMSO) vehicle control (5% DMSO final); and […] Ras-CVLS in a total volume of […]. The reaction was allowed to proceed for 30 minutes at room temperature and then stopped with 0.5 ml of 4% sodium dodecyl sulfate (SDS) followed by 0.5 ml of cold 30% TCA. Samples were allowed to sit on ice for 45 minutes and precipitated Ras protein was then collected on GF/C filter paper mats using a Brandel cell harvester. Filter mats were washed once with 6% TCA, 2% SDS and radioactivity was measured in a Wallac 1204 Betaplate BS liquid scintillation counter. Percent inhibition was calculated relative to the DMSO vehicle control. The geranylgeranyl protein transferase I assay was essentially identical to the farnesyl protein transferase assay described above, with two exceptions: [^3H]geranylgeranylpyrophosphate replaced farnesyl pyrophosphate as the isoprenoid donor and Ras-CVLL was the protein acceptor. This is similar to the assay reported by Casey et al (Casey, P.J., et al., (1991), Enzymatic modification of proteins with a geranylgeranyl isoprenoid, Proc. Natl. Acad. Sci, USA 88: 8631-8635, the disclosure of which is incorporated herein by reference thereto). • 2. […]

Row | SMILES | pIC50
1 | O=C(Cc1cc[n+]([O-])cc1)N1CCN([C@H]2c3ncc(Br)cc3CCc3cc(Cl)cc(Br)c32)CC1 [Example 11A] | < 4.18
2 | O=C(Cc1cc[n+]([O-])cc1)N1CCN([C@@H]2c3ccc(Cl)cc3CCc3cc(Br)cnc32)CC1 [Example 16A] | < 4.42
3 | O=C(Cc1cc[n+]([O-])cc1)N1CCC(C2c3ccc(Cl)c(Br)c3CCc3cc(Br)cnc32)CC1 (single isomer, unassigned) [Example 14A] | < 4.21
4 | O=C(Cc1cc[n+]([O-])cc1)N1CCN([C@H]2c3ccc(Cl)c(Br)c3CCc3cc(Br)cnc32)CC1 [Example 5] | < 4.18
5 | O=C(Cc1cc[n+]([O-])cc1)N1CCC(=C2c3ccc(Cl)c(Br)c3CCc3cc(Br)cnc32)CC1 [Example 2] | < 3.52
6 | O=C(Cc1cc[n+]([O-])cc1)N1CCC(=C2c3ncc(Br)cc3CCc3cc(Cl)cc(Br)c32)CC1 (racemic) [Example 7] | < 3.52
7 | NC(=O)N1CCC(CC(=O)N2CCC(C3c4ncc(Br)cc4CCc4cc(Cl)cc(Cl)c43)CC2)CC1 (single isomer, unassigned) [Example 18] | < 4.30
8 | NC(=O)N1CCC(CC(=O)N2CCC(C3c4ccc(Cl)c(Br)c4CCc4cc(Br)cnc43)CC2)CC1 (single isomer, unassigned) [Example 13] | < 4.20
9 | O=C(Cc1cc[n+]([O-])cc1)N1CCN([C@H]2c3ccc(Cl)cc3CCc3cc(Br)cnc32)CC1 [Example 16B] | < 4.12
10 | O=C(Cc1cc[n+]([O-])cc1)N1CCC([C@H]2c3ncc(Br)cc3CCc3cc(Cl)cc(Br)c32)CC1 [Example 9] | < 4.23

Source: patent EP1019392B1, “TRICYCLIC AMIDES USEFUL FOR INHIBITION OF G-PROTEIN FUNCTION AND FOR TREATMENT OF PROLIFERATIVE DISEASES” (SCHERING CORPORATION, priority 1995, dated 1997)
